“And” between values parts separate entries of the source, which are not always exact repeats. Equal entries are not always repeated.
Legend:
[1] = design: method as in DuPont 2017; details: ref DuPont 2017; cited from earlier work
[2] = test system: pregnant Sprague-Dawley rats; assay: Maternal and fetal effects of GD14-18 oral dosing (weights, reproductive output); type: in vivo
Method: A total of three blocks of 15 dams per block were dosed once daily from GD14–18 with either water vehicle (control) or HFPO-DA to evaluate fetal and maternal effects (Figure 1A). The first block of dams was dosed with control, 62.5, 125, 250, or 500mg/kg HFPO-DA ( n=3 dams for each). The second and third blocks of dams were dosed with control, 1, 3, 10, or 30mg/kg HFPO-DA ( n=3 per dose per block). Total sample sizes were n=9 for control, n=6 for 1, 3, 10, 30mg/kg , and n=3 for 62.5, 125, 250, and 500mg/kg HFPO-DA. In the first two blocks, spanning the entire dose range, we evaluated fetal testis testosterone production, fetal testis gene expression, fetal and maternal liver gene expression, fetal body weight, and maternal serum thyroid hormone and lipid concentrations. In the third block, encompassing the lower dose range utilized here, we collected fetal plasma for measuring HFPO-DA concentrations. Across all three blocks we evaluated maternal weight gain during dosing, reproductive output (number of fetuses and resorptions), maternal serum HFPO-DA concentration, and maternal liver weight at necropsy.
For the first two blocks, spanning the full dose range, late gestation (GD18) dams were euthanized by decapitation at ∼2h after the final oral dose [ ∼0830–1000 hours Eastern Standard Time (EST)]. Trunk blood was collected and serum isolated via centrifugation ( 10,000×g for 15 min at 4°C) in vacutainer tubes, transferred to 1.5-mL microcentrifuge tubes and stored at −80°C . Dam liver weight was recorded and a sample of liver tissue was collected into a polypropylene microcentrifuge tube containing 500μL TRIzol Reagent (Invitrogen) on ice. Fetuses were removed and two randomly selected fetuses per litter were weighed. Fetal testes were collected from all male pups with a single testis from the first three males used for determination of ex vivo testosterone production and the remaining testes were homogenized and preserved in TRIzol Reagent for gene expression analysis. The liver was collected from a single, randomly selected fetus per dam/litter for gene expression analysis and transferred to a polypropylene microcentrifuge tube containing 500μL TRIzol Reagent (Invitrogen) on ice. Both dam and fetal liver samples were individually homogenized using a Bullet Blender (Next Advance) with 1-mm zirconium oxide beads, transferred to clean tubes, and stored at −80°C prior to RNA extraction (see below). Ex vivo fetal testis testosterone production was measured as previously reported ([Wilson et al. 2004b]) except the radioimmunoassay (RIA) utilized here was supplied by ALPCO (Catalog No. 72-TESTO-CT2, ALPCO). Briefly, one testis was isolated from each of three separate male fetuses in each litter and incubated in a humidified atmosphere at 37°C for 3 h in 500μL of M-199 media (phenol red–free; Hazelton Biologics, Inc.) supplemented with 10% dextran-coated charcoal-stripped fetal bovine serum (Hyclone Laboratories) in 24-well plates under gentle agitation. After incubation, media were removed and stored in siliconized microcentrifuge tubes at −80°C until RIA analyses, which were performed according to manufacturer specifications.
For the third block, dosed with the lower dose range ( 1–30mg/kg HFPO-DA), late gestation (GD18) dams were euthanized by decapitation ∼2h after the final dose, liver weight was recorded, and trunk blood was collected for serum isolation. Serum was isolated from trunk blood via centrifugation ( 10,000×g; 15 min; 4°C) using Becton Dickinson vacutainer tubes and stored in 1.5-mL siliconized microcentrifuge tubes at −80°C for future analyses. Fetuses were removed and fetal blood was collected from the jugular vein from all fetuses within a litter using heparinized glass capillary tubes. Blood was expelled from capillary tubes using fine-tip disposable transfer pipets into a microcentrifuge tube forming a single composite sample per litter. […]

[3] = test system: pregnant Sprague-Dawley rats; assay: Dose-response analyses (EC5) versus maternal serum HFPO-DA concentration; type: in vivo
Method: Dose–response analyses for the in vitro transactivation assay data and the most sensitive in vivo end points and were conducted using four-parameter logistic regression in GraphPad Prism (constraint to bottom=0% , top=100% ). In vitro luminescence data was normalized to background (vehicle control), log10 transformed, and converted to percentage maximum response based on saturating levels of reference agonist. In vivo data were modeled as a function of log10 -transformed internal dose (i.e., dam serum HFPO-DA concentration from GD18), and response data was normalized to control and presented as a percentage. We estimated effect concentrations equivalent to a 5% deviation from control ( EC5 ). Reduction in maternal serum T3 concentration was modeled by ascribing a concentration of one-half of the detection limit (i.e., 0.1 ng/mL; detection limit of 0.2 ng/mL ) for the dose groups that were below the detection limit.

[4] = test system: Sprague-Dawley rats; details: cited from earlier work

Question: Which results are given for `O=C(O)C(F)(OC(F)(F)C(F)(F)C(F)(F)F)C(F)(F)F` (stereo not drawn) [HFPO-DA, Hexafluoropropylene oxide dimer acid]?
Answer: highest detected plasma concentration from a worker [1]: 0.169 µg/mL; numbers of live pups, resorptions, fetal body weight compared with controls ([2]; 1-500 mg/kg): no significant differences; Dam BW GD18 ([2]; 1-500 mg/kg/d): 378.6 ± 19.1 g and 364.1 ± 15.6 g and 371.5 ± 11.4 g and 354.3 ± 12.4 g and 366.2 ± 9.9 g and 346.7 ± 5.5 g and 350.2 ± 6.0 g and 369.8 ± 15.1 g; No. fetuses ([2]; 1-500 mg/kg/d): 12.3 ± 1.0 and 13.3 ± 0.6 and 13.2 ± 0.5 and 13.5 ± 0.4 and 12.7 ± 0.9 and 14.3 ± 0.3 and 13.7 ± 1.3 and 14.7 ± 0.3; maternal body weight gain compared with controls ([2]; GD14-18 dosing window): significantly less body weight gain at the 250- and 500-mg/kg dose levels; Dam liver wt ([2]; GD18, 1-500 mg/kg/d): 15.8 ± 0.7 g and 16.7 ± 1.1 g and 16.5 ± 0.5 g and 17.2 ± 0.5 g and 17.8 ± 0.7 g and 19.1 ± 0.6 g and 19.6 ± 0.3 g and 19.2 ± 0.6 g; Fetal BW ([2]; GD18, 1-500 mg/kg/d): 908.7 ± 27.0 mg and 816.7 ± 24.2 mg and 841.0 ± 38.4 mg and 842.2 ± 50.5 mg and 863.7 ± 31.7 mg and 841.8 ± 46.7 mg and 889.1 ± 26.9 mg and 808.2 ± 88.9 mg; Dam BW GD14 ([2]; dose order 1, 3, 10, 30, 62.5, 125, 250, 500 mg/kg/d): 337.0 ± 12.9 g and 341.6 ± 14.1 g and 330.8 ± 13.4 g and 338.0 ± 11.5 g and 320.9 ± 8.7 g and 330.6 ± 8.8 g and 325.8 ± 3.7 g and 339.1 ± 10.5 g; dose with higher maternal liver weights ([2]; oral GD14-18): ≥ 62.5 mg/kg; EC5, maternal serum T3 ([3]; 5% deviation from control, maternal serum HFPO-DA): 3.8 µg/mL; estimated maternal oral dose at T3 EC5 ([3]; linear equation from Figure 5): 8.2 mg/kg; EC5, maternal liver Ehhadh expression ([3]; maternal serum HFPO-DA): 14.1 µg/mL; EC5, maternal liver weight ([3]; maternal serum HFPO-DA): 17.6 µg/mL; EC5, maternal serum T4 ([3]; maternal serum HFPO-DA): 17.8 µg/mL; NOAEL ([4]; ref Caverly Rae et al. 2015): 1 mg/kg per day; upper dose tolerated in the rat ([4]; ref Caverly Rae et al. 2015): 500 mg/kg per day; NOAEL, prenatal developmental toxicity study ([4]; ref DuPont 2010): 10 mg/kg per day; dose overtly toxic to the dam ([4]; ref DuPont 2010): 1,000 mg/kg per day
